We go through 14 compounds from patent publication US11427548B2 (Arvinas Operations, Inc., priority 2015, dated 2022).

Molecules are shown by their SMILES.

The assay deals with T1, Androgen Receptor (Homo sapiens, UniProt P10275+P40337, T878A).
T1 construct: Compounds have been evaluated in this assay in LNCaP and/or VCaP cells utilizing similar protocols; endogenous in cells; host or cells: LNCaP cells
Put plainly: Androgen Receptor ELISA assay (PathScan AR ELISA) in LNCaP cells: AR degradation, Dmax and DC50. The class given is cell-based. The settings on record: for DC50: concentration that caused 50% Androgen Receptor degradation; for Dmax: highest percentage of Androgen Receptor degradation observed. (In an ELISA, binding on a coated surface is turned into a signal by an enzyme label.)

T1 sequence (P10275 whole entry T878A): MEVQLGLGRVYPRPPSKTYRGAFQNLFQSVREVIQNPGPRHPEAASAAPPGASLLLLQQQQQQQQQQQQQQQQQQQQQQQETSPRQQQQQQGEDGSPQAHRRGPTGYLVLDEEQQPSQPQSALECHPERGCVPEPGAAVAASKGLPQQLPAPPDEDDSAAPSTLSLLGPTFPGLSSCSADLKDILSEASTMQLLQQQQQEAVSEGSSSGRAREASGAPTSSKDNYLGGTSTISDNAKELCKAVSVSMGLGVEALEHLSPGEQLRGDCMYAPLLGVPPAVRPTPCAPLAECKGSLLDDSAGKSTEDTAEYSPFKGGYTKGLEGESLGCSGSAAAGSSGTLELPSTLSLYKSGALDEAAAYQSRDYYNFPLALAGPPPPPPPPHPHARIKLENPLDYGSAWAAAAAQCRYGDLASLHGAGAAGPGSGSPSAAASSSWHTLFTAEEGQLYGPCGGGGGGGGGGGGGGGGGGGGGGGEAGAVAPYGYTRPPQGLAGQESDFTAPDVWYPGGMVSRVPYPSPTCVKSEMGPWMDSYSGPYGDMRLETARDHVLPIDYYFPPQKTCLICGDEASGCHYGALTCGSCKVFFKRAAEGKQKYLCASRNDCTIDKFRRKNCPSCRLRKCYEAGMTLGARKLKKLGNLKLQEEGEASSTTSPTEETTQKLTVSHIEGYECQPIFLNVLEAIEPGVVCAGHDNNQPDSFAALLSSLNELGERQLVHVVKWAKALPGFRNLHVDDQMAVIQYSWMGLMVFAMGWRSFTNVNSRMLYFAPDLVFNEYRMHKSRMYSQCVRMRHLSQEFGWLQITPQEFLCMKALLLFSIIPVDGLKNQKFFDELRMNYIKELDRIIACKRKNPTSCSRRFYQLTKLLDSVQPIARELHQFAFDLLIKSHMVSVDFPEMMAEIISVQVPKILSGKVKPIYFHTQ
T1 sequence (P40337 whole entry): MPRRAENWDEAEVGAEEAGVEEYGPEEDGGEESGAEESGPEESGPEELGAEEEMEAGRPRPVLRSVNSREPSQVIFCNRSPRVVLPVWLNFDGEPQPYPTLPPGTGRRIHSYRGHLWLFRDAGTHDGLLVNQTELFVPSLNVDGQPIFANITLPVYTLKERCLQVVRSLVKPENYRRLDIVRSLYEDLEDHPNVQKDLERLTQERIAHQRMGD
T1 sequence (Q15369 whole entry partner): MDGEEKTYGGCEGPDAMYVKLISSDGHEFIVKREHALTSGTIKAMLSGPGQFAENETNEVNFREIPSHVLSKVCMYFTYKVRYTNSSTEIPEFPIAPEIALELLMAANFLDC
T1 sequence (Q15370 whole entry partner): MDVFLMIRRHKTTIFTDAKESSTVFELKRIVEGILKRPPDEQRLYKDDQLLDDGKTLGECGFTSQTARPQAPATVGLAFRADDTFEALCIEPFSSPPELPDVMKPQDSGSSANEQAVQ

Regarding `Cc1ncsc1-c1ccc(CNC(=O)[C@@H]2C[C@@H](O)CN2C(=O)[C@@H](NC(=O)COCCCOCCCCCOc2ccc(N3C(=S)N(c4ccc([N+](=O)[O-])c(C(F)(F)F)c4)C(=O)C3(C)C)cc2)C(C)(C)C)cc1` [Example 5, (2S,4R)-1-[(2S)-2-[2-(3-{[5-(4-{5,5-dimethyl-3-[4-nitro-3-(trifluoromethyl)phenyl]-4-oxo-2-sulfanylideneimidazolidin-1-yl}phenoxy)pentyl]oxy}propoxy)acetamido]-3,3-dimethylbutanoyl]-4-hydroxy-N-{[4-(4-methyl-1,3-thiazol-5-yl)phenyl]methyl}pyrrolidine-2-carboxamide], the 50% degradation concentration (DC50) was 51 to 500 nM and the Dmax is above 71%.
With `Cc1cc(N2C(=O)C(C)(C)N(c3ccc(OCCCCCOCCCOCC(=O)N[C@H](C(=O)N4C[C@H](O)C[C@H]4C(=O)NCc4ccc(-c5scnc5C)cc4)C(C)(C)C)cc3)C2=S)ccc1C#N` [Example 6, (2S,4R)-1-[(2S)-2-(2-{3-[(5-{4-[3-(4-cyano-3-methylphenyl)-5,5-dimethyl-4-oxo-2-sulfanylideneimidazolidin-1-yl]phenoxy}pentyl)oxy]propoxy}acetamido)-3,3-dimethylbutanoyl]-4-hydroxy-N-{[4-(4-methyl-1,3-diiazol-5-yl)phenyl]methyl}pyrrolidine-2-carboxamid], the DC50 was below 50 nM and the Dmax is above 71%.
`Cc1ncsc1-c1ccc(CNC(=O)[C@@H]2C[C@@H](O)CN2C(=O)[C@@H](NC(=O)COCCCOCCCCCOc2ccc(N3C(=S)N(c4ccc(C#N)c(F)c4)C(=O)C3(C)C)cc2)C(C)(C)C)cc1` [Example 7] yielded a DC50 below 50 nM and a Dmax of 51 to 70%.
In the case of `COc1cc(N2C(=O)C(C)(C)N(c3ccc(OCCCCCOCCCOCC(=O)N[C@H](C(=O)N4C[C@H](O)C[C@H]4C(=O)NCc4ccc(-c5scnc5C)cc4)C(C)(C)C)cc3)C2=S)ccc1C#N` [Example 9, (2S,4R)-1-[(2S)-2-(2-{3-[(5-{4-[3-(4-cyano-3-methoxyphenyl)-5,5-dimethyl-4-oxo-2-sulfanylideneimidazolidin-1-yl]phenoxy}pentyl)oxy]propoxy}acetamido)-3,3-dimethylbutanoyl]-4-hydroxy-N-{[4-(4-methyl-1,3-thiazol-5-yl)phenyl]methyl}pyrrolidine-2-carboxamide], the DC50 is below 50 nM and the Dmax was above 71%.
With `Cc1ncsc1-c1ccc(CNC(=O)[C@@H]2C[C@@H](O)CN2C(=O)[C@@H](NC(=O)COCCOCCOCCOc2ccc(N3C(=O)N(c4ccc(C#N)c(C(F)(F)F)c4)C(=O)C3(C)C)cc2)C(C)(C)C)cc1` [Example 17, (2S,4R)-1-[(2S)-2-[2-(2-{2-[2-(4-{3-[4-cyano-3-(trifluoromethyl)phenyl]-5,5-dimethyl-2,4-dioxoimidazolidin-1-yl}phenoxy)ethoxy]ethoxy}ethoxy)acetamido]-3,3-dimethylbutanoyl]-4-hydroxy-N-{[4-(4-methyl-1,3-thiazol-5-yl)phenyl]methyl}pyrrolidine-2-carboxamide], the DC50 fell in the range of 51 to 500 nM and the Dmax fell in the range of 26 to 50%.
With `Cc1ncsc1-c1ccc(CNC(=O)[C@@H]2C[C@@H](O)CN2C(=O)[C@@H](NC(=O)COCCOCCOCCOc2ccc(N3C(=S)N(c4ccc(C#N)c(C(F)(F)F)c4)C(=O)C3(C)C)cc2F)C(C)(C)C)cc1` [Example 18, (2S,4R)-1-[(2S)-2-[2-(2-{2-[2-(4-{3-[4-cyano-3-(trifluoromethyl)phenyl]-5,5-dimethyl-4-oxo-2-sulfanylideneimidazolidin-1-yl}-2-fluorophenoxy)ethoxy]ethoxy}ethoxy)acetamido]-3,3-dimethylbutanoyl]-4-hydroxy-N-{[4-(4-methyl-1,3-thiazol-5-yl)phenyl]methyl}pyrrolidine-2-carboxamide], the DC50 was 51 to 500 nM and the Dmax was 51 to 70%.
`Cc1ncsc1-c1ccc(CNC(=O)[C@@H]2C[C@@H](O)CN2C(=O)[C@@H](NC(=O)COCCOCCOCCOc2ccc(N3C(=S)N(c4ccc([N+](=O)[O-])c(C(F)(F)F)c4)C(=O)C3(C)C)cc2)C(C)(C)C)cc1` [Example 19, (2S,4R)-1-[(2S)-2-[2-(2-{2-[2-(4-{5,5-dimethyl-3-[4-nitro-3-(trifluoromethyl)phenyl]-4-oxo-2-sulfanylideneimidazolidin-1-yl}phenoxy)ethoxy]ethoxy}ethoxy)acetamido]-3,3-dimethylbutanoyl]-4-hydroxy-N-{[4-(4-methyl-1,3-thiazol-5-yl)phenyl]methyl}pyrrolidine-2-carboxamide] yielded a DC50 below 50 nM and a Dmax of 51 to 70%.
`Cc1ncsc1-c1ccc([C@H](C)NC(=O)[C@@H]2C[C@@H](O)CN2C(=O)[C@@H](NC(=O)COCCOCCOCCOc2ccc(N3C(=S)N(c4ccc(C#N)c(C(F)(F)F)c4)C(=O)C3(C)C)cc2)C(C)(C)C)cc1` [Example 20, (2S,4R)-1-[(2S)-2-[2-(2-{2-[2-(4-{3-[4-cyano-3-(trifluoromethyl)phenyl]-5,5-dimethyl-4-oxo-2-sulfanylideneimidazolidin-1-yl}phenoxy)ethoxy]ethoxy}ethoxy)acetamido]-3,3-dimethylbutanoyl]-4-hydroxy-N-[(1S)-1-[4-(4-methyl-1,3-thiazol-5-yl)phenyl]ethyl]pyrrolidine-2-carboxamide] returned a DC50 of 51 to 500 nM and a Dmax above 71%.
In turn, `Cc1ncsc1-c1ccc(CNC(=O)[C@@H]2C[C@@H](O)CN2C(=O)[C@@H](NC(=O)COCCOCCOCCOc2ccc(N3C(=S)N(c4cnc(C#N)c(C(F)(F)F)c4)C(=O)C3(C)C)cc2)C(C)(C)C)cc1` [Example 21, (2S,4R)-1-[(2S)-2-[2-(2-{2-[2-(4-{3-[6-cyano-5-(trifluoromethyl)pyridin-3-yl]-5,5-dimethyl-4-oxo-2-sulfanylideneimidazolidin-1-yl}phenoxy)ethoxy]ethoxy}ethoxy)acetamido]-3,3-dimethylbutanoyl]-4-hydroxy-N-{[4-(4-methyl-1,3-thiazol-5-yl)phenyl]methyl}pyrrolidine-2-carboxamide] returned a Dmax of 26 to 50%.
`Cc1ncsc1-c1ccc(CNC(=O)[C@@H]2C[C@@H](O)CN2C(=O)[C@@H](NC(=O)COCCO[C@H](C)[C@@H](C)OCCOc2ccc(N3C(=S)N(c4ccc(C#N)c(C(F)(F)F)c4)C(=O)C3(C)C)cc2)C(C)(C)C)cc1` [Example 23, (2S,4R)-1-[(2S)-2-[2-(2-{[(2R,3R)-3-[2-(4-{3-[4-cyano-3-(trifluoromethyl)phenyl]-5,5-dimethyl-4-oxo-2-sulfanylideneimidazolidin-1-yl}phenoxy)ethoxy]butan-2-yl]oxy}ethoxy)acetamido]-3,3-dimethylbutanoyl]-4-hydroxy-N-{[4-(4-methyl-1,3-thiazol-5-yl)phenyl]methyl}pyrrolidine-2-carboxamide] gave a DC50 of 51 to 500 nM and a Dmax above 71%.
The compound `Cc1ncsc1-c1ccc(CNC(=O)[C@@H]2C[C@@H](O)CN2C(=O)[C@@H](NC(=O)COCCCCOCCCCOc2ccc(N3C(=S)N(c4ccc(C#N)c(C(F)(F)F)c4)C(=O)C3(C)C)cc2)C(C)(C)C)cc1` [Example 24, (2S,4R)-1-[(2S)-2-(2-{4-[4-(4-{3-[4-cyano-3-(trifluoromethyl)phenyl]-5,5-dimethyl-4-oxo-2-sulfanylideneimidazolidin-1-yl}phenoxy)butoxy]butoxy}acetamido)-3,3-dimethylbutanoyl]-4-hydroxy-N-{[4-(4-methyl-1,3-thiazol-5-yl)phenyl]methyl}pyrrolidine-2-carboxamide] came in with a DC50 below 50 nM and a Dmax above 71%.
Taken in the same sequence, the figures for `Cc1ncsc1-c1ccc(CNC(=O)[C@@H]2C[C@@H](O)CN2C(=O)[C@@H](NC(=O)COCCOCCNC(=O)CCCc2ccc(N3C(=S)N(c4ccc(C#N)c(C(F)(F)F)c4)C(=O)C3(C)C)cc2)C(C)(C)C)cc1` [Example 62, (2S,4R)-1-((S)-2-tert-butyl-16-(4-(3-(4-cyano-3-(trifluoromethyl)phenyl)-5,5-dimethyl-4-oxo-2-thioxoimidazolidin-1-yl)phenyl)-4,13-dioxo-6,9-dioxa-3,12-diazahexadecane)-4-hydroxy-N-(4-(4-methylthiazol-5-yl)benzyl)pyrrolidine-2-carboxamide] were above 501 nM and 51 to 70%.
Compound `Cc1ncsc1-c1ccc(CNC(=O)[C@@H]2C[C@@H](O)CN2C(=O)[C@@H](NC(=O)COCCOCCN(C)C(=O)CCCc2ccc(N3C(=S)N(c4ccc(C#N)c(C(F)(F)F)c4)C(=O)C3(C)C)cc2)C(C)(C)C)cc1` [Example 64, (2S,4R)-1-[(2S)-2-[2-(2-{2-[4-(4-{3-[4-cyano-3-(trifluoromethyl)phenyl]-5,5-dimethyl-4-oxo-2-sulfanylideneimidazolidin-1-yl}phenyl)-N-methylbutanamido]ethoxy}ethoxy)acetamido]-3,3-dimethylbutanoyl]-4-hydroxy-N-{[4-(4-methyl-1,3-thiazol-5-yl)phenyl]methyl}pyrrolidine-2-carboxamide] registered a DC50 of 51 to 500 nM and a Dmax of 51 to 70%.
The compound `Cc1ncsc1-c1ccc(CNC(=O)[C@@H]2C[C@@H](O)CN2C(=O)[C@@H](NC(=O)CCOCCOCCOc2ccc(-c3ccc(N4C(=S)N(c5ccc(C#N)c(C(F)(F)F)c5)C(=O)C4(C)C)cc3)cc2)C(C)(C)C)cc1` [Example 68, (2S,4R)-1-[(2S)-2-[3-(2-{2-[4-(4-{3-[4-cyano-3-(trifluoromethyl)phenyl]-5,5-dimethyl-4-oxo-2-sulfanylideneimidazolidin-1-yl}phenyl)phenoxy]ethoxy}ethoxy)propanamido]-3,3-dimethylbutanoyl]-4-hydroxy-N-{[4-(4-methyl-1,3-thiazol-5-yl)phenyl]methyl}pyrrolidine-2-carboxamide] returned a DC50 of 51 to 500 nM and a Dmax of 26 to 50%.

What is called DC50 is the midpoint of the concentration-degradation curve. Low readings indicate degradation at low concentration, high ones degradation only at high concentration. Usually Dmax stands for the greatest extent of degradation seen. Read a low Dmax as shallow degradation.
